Laboratory results: patent publication US12723063B2, “GIPR-agonist compounds” (Eli Lilly and Company, priority 2019, dated 2026)
*1 amine or outer side, *2 acyl side, *3 side chain or, on linkers, in order; H or OH if unused. Where a SMILES comes first, the peptide text is derived from it. Side-chain parts run from the residue outwards. [ ]: non-standard residue; d: D form. The star is where a group is joined. C20 diacid = O=C(O)CCCCCCCCCCCCCCCCCCC(=O)*; C18 diacid = O=C(O)CCCCCCCCCCCCCCCCC(=O)*; αMePhe(2-F) = C[C@](N)(Cc1ccccc1F)C(=O)O; γGlu = O=C(O)[C@H](CCC(=O)[*:2])N[*:1]; 4Pal = N[C@@H](Cc1ccncc1)C(=O)O; αMeL = CC(C)C[C@](C)(N)C(=O)O; Orn = NCCC[C@H](N)C(=O)O; AEEA = NCCOCCOCC(=O)O; Aib = CC(C)(N)C(=O)O

Biological target: T1, human GcgR (Homo sapiens, UniProt P47871)
T1 construct: expressed in transfected cells; crude membranes
Experiment: [125I]-Glucagon binding, SPA with WGA beads, 0.1% bacitracin
Conditions: geometric mean, read-out: hGcgR Ki
Outline: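 SPA competition binding with WGA beads on crude membranes from HEK293 cells stably expressing hGcgR. Buffer: 25 mM HEPES pH 7.4, 2.5 mM CaCl2, 1 mM MgCl2, 0.1% bacitracin, 0.003% Tween-20; 10-point 3-fold dilutions, NSB with 1 μM Gcg.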

T1 sequence (P47871 26-477): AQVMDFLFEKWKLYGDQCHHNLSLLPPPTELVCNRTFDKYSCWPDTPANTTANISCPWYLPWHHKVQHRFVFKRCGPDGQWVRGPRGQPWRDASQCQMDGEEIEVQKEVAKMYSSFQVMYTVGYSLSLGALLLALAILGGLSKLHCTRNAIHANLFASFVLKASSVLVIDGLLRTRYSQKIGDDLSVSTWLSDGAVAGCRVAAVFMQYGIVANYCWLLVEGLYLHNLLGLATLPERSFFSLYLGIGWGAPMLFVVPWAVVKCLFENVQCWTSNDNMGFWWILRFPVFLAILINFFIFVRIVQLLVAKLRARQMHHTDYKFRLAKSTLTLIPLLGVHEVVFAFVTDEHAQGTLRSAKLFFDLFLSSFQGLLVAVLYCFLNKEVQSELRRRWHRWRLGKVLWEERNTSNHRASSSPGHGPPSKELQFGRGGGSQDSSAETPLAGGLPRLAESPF

Row | Compound | Ki
1 | CC[C@H](C)[C@H](NC(=O)[C@H](Cc1ccccc1)NC(=O)[C@@H](NC(=O)CNC(=O)[C@H](CCC(=O)O)NC(=O)C(C)(C)NC(=O)[C@@H](N)Cc1ccc(O)cc1)[C@@H](C)O)C(=O)N[C@@H](CO)C(=O)N[C@@H](CC(=O)O)C(=O)N[C@@H](Cc1ccc(O)cc1)C(=O)N[C@@H](CO)C(=O)N[C@H](C(=O)N[C@@](C)(CC(C)C)C(=O)N[C@@H](CC(C)C)C(=O)N[C@@H](CC(=O)O)C(=O)N[C@@H](CCC(=O)O)C(=O)N[C@@H](CCCCNC(=O)COCCOCCNC(=O)COCCOCCNC(=O)CC[C@H](NC(=O)CCCCCCCCCCCCCCCCCCC(=O)O)C(=O)O)C(=O)N[C@@H](Cc1c[nH]cn1)C(=O)N[C@@H](CCC(N)=O)C(=O)NC(C)(C)C(=O)N[C@@H](CC(=O)O)C(=O)N[C@@H](Cc1ccccc1)C(=O)N[C@H](C(=O)N[C@@H](CCC(=O)O)C(=O)N[C@@H](Cc1ccncc1)C(=O)N[C@@H](CC(C)C)C(=O)N[C@@H](CC(C)C)C(=O)N[C@@H](C)C(=O)NCC(=O)NCC(=O)N1CCC[C@H]1C(=O)N[C@@H](CO)C(=O)N[C@@H](CO)C(=O)NCC(=O)N[C@@H](C)C(=O)N1CCC[C@H]1C(=O)N1CCC[C@H]1C(=O)N1CCC[C@H]1C(=O)N[C@@H](CO)C(N)=O)C(C)C)[C@@H](C)CC [Example 86] | 0.462 µM
2 | CC[C@H](C)[C@H](NC(=O)[C@H](CCCN)NC(=O)[C@H](CC(=O)O)NC(=O)[C@H](CC(C)C)NC(=O)[C@](C)(CC(C)C)NC(=O)[C@@H](NC(=O)[C@H](CO)NC(=O)[C@H](Cc1ccc(O)cc1)NC(=O)[C@H](CC(=O)O)NC(=O)[C@H](CO)NC(=O)[C@@H](NC(=O)[C@H](Cc1ccccc1)NC(=O)[C@@H](NC(=O)CNC(=O)[C@H](CCC(=O)O)NC(=O)C(C)(C)NC(=O)[C@@H](N)Cc1ccc(O)cc1)[C@@H](C)O)[C@@H](C)CC)[C@@H](C)CC)C(=O)N[C@@H](Cc1c[nH]cn1)C(=O)N[C@@H](CCC(N)=O)C(=O)NC(C)(C)C(=O)N[C@@H](CCC(=O)O)C(=O)N[C@@H](Cc1ccccc1)C(=O)N[C@H](C(=O)N[C@@H](CCC(=O)O)C(=O)N[C@@H](Cc1ccc(O)cc1)C(=O)N[C@@H](CCCCNC(=O)COCCOCCNC(=O)COCCOCCNC(=O)CC[C@H](NC(=O)CCCCCCCCCCCCCCCCCCC(=O)O)C(=O)O)C(=O)N[C@@H](CC(C)C)C(=O)N[C@@H](CCC(=O)O)C(=O)N[C@@H](CCC(N)=O)C(=O)NCC(=O)N1CCC[C@H]1C(=O)N[C@@H](CO)C(=O)N[C@@H](CO)C(=O)NCC(=O)N[C@@H](C)C(=O)N1CCC[C@H]1C(=O)N1CCC[C@H]1C(=O)N1CCC[C@H]1C(=O)N[C@@H](CO)C(N)=O)C(C)C [Example 106] (H-Y[Aib]EGTFISDYSI[αMeL]LD[Orn]IHQ[Aib]EFVEYK([AEEA-AEEA-γGlu-C20 diacid])LEQGPSSGAPPPS-NH2) | 0.304 µM
3 | CC[C@H](C)[C@H](NC(=O)[C@H](CCCN)NC(=O)[C@H](CC(=O)O)NC(=O)[C@H](CC(C)C)NC(=O)[C@](C)(CC(C)C)NC(=O)[C@@H](NC(=O)[C@H](CO)NC(=O)[C@H](Cc1ccc(O)cc1)NC(=O)[C@H](CC(=O)O)NC(=O)[C@H](CO)NC(=O)[C@@H](NC(=O)[C@H](Cc1ccccc1)NC(=O)[C@@H](NC(=O)CNC(=O)[C@H](CCC(=O)O)NC(=O)C(C)(C)NC(=O)[C@@H](N)Cc1ccc(O)cc1)[C@@H](C)O)[C@@H](C)CC)[C@@H](C)CC)C(=O)N[C@@H](Cc1c[nH]cn1)C(=O)N[C@@H](CCC(N)=O)C(=O)NC(C)(C)C(=O)N[C@@H](CC(=O)O)C(=O)N[C@@H](Cc1ccccc1)C(=O)N[C@H](C(=O)N[C@@H](CCC(=O)O)C(=O)N[C@@H](Cc1ccc(O)cc1)C(=O)N[C@@H](CCCCNC(=O)COCCOCCNC(=O)COCCOCCNC(=O)CC[C@H](NC(=O)CCCCCCCCCCCCCCCCC(=O)O)C(=O)O)C(=O)N[C@@H](CC(C)C)C(=O)N[C@@H](CCC(=O)O)C(=O)NCC(=O)NCC(=O)N1CCC[C@H]1C(=O)N[C@@H](CO)C(=O)N[C@@H](CO)C(=O)NCC(=O)N[C@@H](C)C(=O)N1CCC[C@H]1C(=O)N1CCC[C@H]1C(=O)N1CCC[C@H]1C(=O)N[C@@H](CO)C(N)=O)C(C)C [Example 103] (H-Y[Aib]EGTFISDYSI[αMeL]LD[Orn]IHQ[Aib]DFVEYK([AEEA-AEEA-γGlu-C18 diacid])LEGGPSSGAPPPS-NH2) | > 0.96 µM
4 | CC[C@H](C)[C@H](NC(=O)[C@H](CO)NC(=O)[C@H](Cc1ccc(O)cc1)NC(=O)[C@H](CC(=O)O)NC(=O)[C@H](CO)NC(=O)[C@@H](NC(=O)[C@](C)(Cc1ccccc1F)NC(=O)[C@@H](NC(=O)CNC(=O)[C@H](CCC(=O)O)NC(=O)C(C)(C)NC(=O)[C@@H](N)Cc1ccc(O)cc1)[C@@H](C)O)[C@@H](C)CC)C(=O)N[C@@H](C)C(=O)N[C@@H](CC(C)C)C(=O)N[C@@H](CC(=O)O)C(=O)N[C@@H](CCCCN)C(=O)N[C@H](C(=O)N[C@@H](Cc1c[nH]cn1)C(=O)N[C@@H](CCC(N)=O)C(=O)NC(C)(C)C(=O)N[C@@H](CCC(=O)O)C(=O)N[C@@H](Cc1ccccc1)C(=O)N[C@H](C(=O)N[C@@H](CC(N)=O)C(=O)N[C@@H](Cc1ccc(O)cc1)C(=O)N[C@@H](CCCCNC(=O)COCCOCCNC(=O)COCCOCCNC(=O)CC[C@H](NC(=O)CCCCCCCCCCCCCCCCC(=O)O)C(=O)O)C(=O)N[C@@H](CC(C)C)C(=O)N[C@@H](C)C(=O)NCC(=O)NCC(=O)N1CCC[C@H]1C(=O)N[C@@H](CO)C(=O)N[C@@H](CO)C(=O)NCC(=O)N[C@@H](C)C(=O)N1CCC[C@H]1C(=O)N1CCC[C@H]1C(=O)N1CCC[C@H]1C(=O)N[C@@H](CO)C(N)=O)C(C)C)[C@@H](C)CC [Example 94] (H-Y[Aib]EGT[αMePhe(2-F)]ISDYSIALDKIHQ[Aib]EFVNYK([AEEA-AEEA-γGlu-C18 diacid])LAGGPSSGAPPPS-NH2) | 0.114 µM
5 | CC[C@H](C)[C@H](NC(=O)[C@H](CO)NC(=O)[C@H](Cc1ccc(O)cc1)NC(=O)[C@H](CC(=O)O)NC(=O)[C@H](CO)NC(=O)[C@@H](NC(=O)[C@](C)(Cc1ccccc1F)NC(=O)[C@@H](NC(=O)CNC(=O)[C@H](CCC(=O)O)NC(=O)C(C)(C)NC(=O)[C@@H](N)Cc1ccc(O)cc1)[C@@H](C)O)[C@@H](C)CC)C(=O)N[C@@H](C)C(=O)N[C@@H](CC(C)C)C(=O)N[C@@H](CC(=O)O)C(=O)N[C@@H](CCCCN)C(=O)N[C@H](C(=O)N[C@@H](Cc1c[nH]cn1)C(=O)N[C@@H](CCC(N)=O)C(=O)NC(C)(C)C(=O)N[C@@H](CC(=O)O)C(=O)N[C@@H](Cc1ccccc1)C(=O)N[C@H](C(=O)N[C@@H](CCC(=O)O)C(=O)N[C@@H](Cc1ccncc1)C(=O)N[C@@H](CCCCNC(=O)COCCOCCNC(=O)COCCOCCNC(=O)CC[C@H](NC(=O)CCCCCCCCCCCCCCCCCCC(=O)O)C(=O)O)C(=O)N[C@@H](CC(C)C)C(=O)N[C@@H](CCC(=O)O)C(=O)N[C@@H](CCC(N)=O)C(=O)NCC(=O)N1CCC[C@H]1C(=O)N[C@@H](CO)C(=O)N[C@@H](CO)C(=O)NCC(=O)N[C@@H](C)C(=O)N1CCC[C@H]1C(=O)N1CCC[C@H]1C(=O)N1CCC[C@H]1C(=O)N[C@@H](CO)C(N)=O)C(C)C)[C@@H](C)CC [Example 114] (H-Y[Aib]EGT[αMePhe(2-F)]ISDYSIALDKIHQ[Aib]DFVE[4Pal]K([AEEA-AEEA-γGlu-C20 diacid])LEQGPSSGAPPPS-NH2) | > 0.971 µM
6 | CC[C@H](C)[C@H](NC(=O)[C@H](CO)NC(=O)[C@H](Cc1ccc(O)cc1)NC(=O)[C@H](CC(=O)O)NC(=O)[C@H](CO)NC(=O)[C@@H](NC(=O)[C@H](Cc1ccccc1)NC(=O)[C@@H](NC(=O)CNC(=O)[C@H](CCC(=O)O)NC(=O)[C@@H](C)NC(=O)[C@@H](N)Cc1ccc(O)cc1)[C@@H](C)O)[C@@H](C)CC)C(=O)N[C@@H](CC(C)C)C(=O)N[C@@H](CC(C)C)C(=O)N[C@@H](CC(=O)O)C(=O)N[C@@H](CCCCN)C(=O)N[C@@H](CCCCNC(=O)COCCOCCNC(=O)COCCOCCNC(=O)CC[C@H](NC(=O)CCCCCCCCCCCCCCCCC(=O)O)C(=O)O)C(=O)N[C@@H](C)C(=O)N[C@@H](CCC(N)=O)C(=O)NC(C)(C)C(=O)N[C@@H](CCC(=O)O)C(=O)N[C@@H](Cc1ccccc1)C(=O)N[C@H](C(=O)N[C@@H](CC(N)=O)C(=O)N[C@@H](Cc1c[nH]c2ccccc12)C(=O)N[C@@H](CC(C)C)C(=O)N[C@@H](CC(C)C)C(=O)N[C@@H](C)C(=O)N[C@@H](CCC(N)=O)C(=O)NCC(=O)N1CCC[C@H]1C(=O)N[C@@H](CO)C(=O)N[C@@H](CO)C(=O)NCC(=O)N[C@@H](C)C(=O)N1CCC[C@H]1C(=O)N1CCC[C@H]1C(=O)N1CCC[C@H]1C(=O)N[C@@H](CO)C(N)=O)C(C)C [Example 20] (H-Y[dA]EGTFISDYSILLDKK([AEEA-AEEA-γGlu-C18 diacid])AQ[Aib]EFVNWLLAQGPSSGAPPPS-NH2) | 0.216 µM
7 | CC[C@H](C)[C@H](NC(=O)[C@H](CO)NC(=O)[C@H](Cc1ccc(O)cc1)NC(=O)[C@H](CC(=O)O)NC(=O)[C@H](CO)NC(=O)[C@@H](NC(=O)[C@](C)(Cc1ccccc1F)NC(=O)[C@@H](NC(=O)CNC(=O)[C@H](CCC(=O)O)NC(=O)[C@H](C)NC(=O)[C@@H](Cc1ccc(O)cc1)NC(C)=O)[C@@H](C)O)[C@@H](C)CC)C(=O)N[C@@H](C)C(=O)N[C@@H](CC(C)C)C(=O)N[C@@H](CC(=O)O)C(=O)N[C@@H](CCCCN)C(=O)N[C@@H](CCCCNC(=O)COCCOCCNC(=O)COCCOCCNC(=O)CC[C@H](NC(=O)CCCCCCCCCCCCCCCCC(=O)O)C(=O)O)C(=O)N[C@@H](Cc1c[nH]cn1)C(=O)N[C@@H](CCC(N)=O)C(=O)NC(C)(C)C(=O)N[C@@H](CCC(=O)O)C(=O)N[C@@H](Cc1ccccc1)C(=O)N[C@H](C(=O)N[C@@H](CC(N)=O)C(=O)N[C@@H](Cc1ccc(O)cc1)C(=O)N[C@@H](CC(C)C)C(=O)N[C@@H](CC(C)C)C(=O)N[C@@H](C)C(=O)NCC(=O)NCC(=O)N1CCC[C@H]1C(=O)N[C@@H](CO)C(=O)N[C@@H](CO)C(=O)NCC(=O)N[C@@H](C)C(=O)N1CCC[C@H]1C(=O)N1CCC[C@H]1C(=O)N1CCC[C@H]1C(=O)N[C@@H](CO)C(N)=O)C(C)C [Example 30] (Ac-[dY]AEGT[αMePhe(2-F)]ISDYSIALDKK([AEEA-AEEA-γGlu-C18 diacid])HQ[Aib]EFVNYLLAGGPSSGAPPPS-NH2) | 0.407 µM
